The values below come from PubChem BioAssay (NCI).

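Five concentrations, 48 hours, 96-well plates. GI50: concentration for 50% inhibition of growth. TGI denotes the concentration required for complete inhibition of growth.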

Some test systems named below: SNB-19 CNS; EKVX NSCLC; LOX IMVI melanoma; CAKI-1 renal; SK-MEL-28 melanoma; DU-145 prostate; HOP-92 NSCLC; MCF7 breast; T-47D breast; M14 melanoma.
Assay in all cases: NCI anticancer screen, dose series, 48 h

With `COc1ccc2c(c1)OCC1c3cc(OC)ccc3OC21` (stereo not given), the GI50 in the assay on SNB-19 CNS is greater than 100 µM; in the assay on EKVX NSCLC it was 32.6 µM; in the assay on LOX IMVI melanoma it was 45.9 µM; in the assay with CAKI-1 renal it was 29.5 µM; with SK-MEL-28 melanoma it was 91.2 µM; in the assay with DU-145 prostate, greater than 100 µM. In addition, the GI50 in the assay on HOP-92 NSCLC is 60.3 µM; in the assay on MCF7 breast, 38.7 µM; in the assay with T-47D breast it was 35.4 µM; in the assay with M14 melanoma it was 39 µM. Further, the TGI in the assay with SNB-19 CNS, in the assay with EKVX NSCLC, with LOX IMVI melanoma, with CAKI-1 renal, with SK-MEL-28 melanoma and with DU-145 prostate was greater than 100 µM throughout. Also, the TGI with HOP-92 NSCLC, with MCF7 breast, in the assay on T-47D breast and in the assay on M14 melanoma was greater than 100 µM in each case.

Consider `CCCCCCCCCCCCNC(=O)N[C@H](C(=O)N[C@H]1/C=C/OCCNC(=O)/C=C/[C@H](C(C)C)NC1=O)C(C)C`, for which the GI50 was 4.3 µM in the assay on SNB-19 CNS; 36.6 µM with EKVX NSCLC; 9.4 µM in the assay on LOX IMVI melanoma; greater than 100 µM in the assay with CAKI-1 renal; 3.28 µM in the assay with SK-MEL-28 melanoma; 14 µM in the assay on DU-145 prostate. Moreover, the GI50 in the assay on HOP-92 NSCLC was 5.14 µM; in the assay with MCF7 breast it was 0.385 µM; in the assay with T-47D breast, 3.14 µM; in the assay on M14 melanoma, 20.2 µM. Also, the TGI was greater than 100 µM in the assay on SNB-19 CNS; greater than 100 µM in the assay on EKVX NSCLC; 36.4 µM with LOX IMVI melanoma; greater than 100 µM in the assay with CAKI-1 renal; 26.2 µM in the assay on SK-MEL-28 melanoma; greater than 100 µM in the assay on DU-145 prostate. The TGI is 58.7 µM in the assay with HOP-92 NSCLC, greater than 100 µM with MCF7 breast, greater than 100 µM with T-47D breast and greater than 70.3 µM with M14 melanoma.

In the case of `CCN(CC)c1ccc(C=C2C(=O)NC(=S)NC2=O)cc1`, the GI50 was 3.55 µM with SNB-19 CNS; 14 µM in the assay on EKVX NSCLC; 2.12 µM in the assay with LOX IMVI melanoma; 1.72 µM in the assay with CAKI-1 renal; 2.43 µM in the assay with SK-MEL-28 melanoma; 4.18 µM in the assay with DU-145 prostate. In addition, the GI50 was 2.6 µM with HOP-92 NSCLC, 3.85 µM in the assay with MCF7 breast, 9.62 µM in the assay with T-47D breast and 6.6 µM with M14 melanoma. For the same compound, the TGI is 13.8 µM with SNB-19 CNS; 28.6 µM in the assay with EKVX NSCLC; 4.57 µM in the assay with LOX IMVI melanoma; 4.5 µM in the assay with CAKI-1 renal; 5.1 µM with SK-MEL-28 melanoma; 13 µM with DU-145 prostate. Besides, the TGI in the assay on HOP-92 NSCLC came out at 7.78 µM; with MCF7 breast, 13.2 µM; in the assay on T-47D breast, 25.7 µM; in the assay on M14 melanoma, 21 µM.

For the compound `Cc1n[nH]c(C)c1-c1c(C)n[nH]c1C`, the GI50 was 2.06 µM in the assay with SNB-19 CNS; 1.93 µM in the assay with EKVX NSCLC; 1.57 µM in the assay with LOX IMVI melanoma; 1.54 µM in the assay with CAKI-1 renal; 1.8 µM in the assay on SK-MEL-28 melanoma; 1.99 µM in the assay with DU-145 prostate. Further, the GI50 in the assay on HOP-92 NSCLC is 1.17 µM; in the assay with MCF7 breast, 1.66 µM; in the assay with T-47D breast it was 1.91 µM; in the assay on M14 melanoma, 2.01 µM. Moreover, the TGI with SNB-19 CNS was determined as 5.13 µM; in the assay with EKVX NSCLC, 4.96 µM; in the assay with LOX IMVI melanoma it was 3.06 µM; in the assay with CAKI-1 renal, 3.13 µM; in the assay with SK-MEL-28 melanoma it was 3.49 µM; with DU-145 prostate, 4.13 µM. Further, the TGI was 2.99 µM in the assay with HOP-92 NSCLC, 3.79 µM in the assay with MCF7 breast, 7.09 µM with T-47D breast and 5.12 µM with M14 melanoma.

As to `CC(C)OC(=O)OCOP(=O)(OCOC(=O)OC(C)C)C1CCCN(O)C1=O` (stereo not given), the GI50 is 1.21 µM in the assay on SNB-19 CNS; 3.03 µM with EKVX NSCLC; 2.3 µM in the assay with LOX IMVI melanoma; 3.55 µM in the assay on CAKI-1 renal; 0.739 µM with SK-MEL-28 melanoma; 3.83 µM in the assay on DU-145 prostate. Moreover, the GI50 in the assay on HOP-92 NSCLC is 0.566 µM; in the assay with MCF7 breast it was 1.52 µM; in the assay with T-47D breast, 1.98 µM; with M14 melanoma it was 2.67 µM. In addition, the TGI in the assay with SNB-19 CNS is greater than 100 µM; with EKVX NSCLC it was greater than 100 µM; in the assay with LOX IMVI melanoma, greater than 100 µM; in the assay on CAKI-1 renal, greater than 100 µM; in the assay on SK-MEL-28 melanoma, 7.83 µM; in the assay on DU-145 prostate, greater than 100 µM. For the same compound, the TGI was 7.91 µM in the assay with HOP-92 NSCLC, greater than 100 µM in the assay on MCF7 breast, greater than 100 µM in the assay with T-47D breast and greater than 100 µM in the assay with M14 melanoma.

Consider `CS(=O)c1cc(=O)c2ccccc2s1` (stereo not given), for which the TGI worked out at 32.3 µM in the assay with SNB-19 CNS; 20.5 µM in the assay with EKVX NSCLC; 9.02 µM with LOX IMVI melanoma; 6.2 µM with CAKI-1 renal; 8.97 µM with SK-MEL-28 melanoma; 34.3 µM in the assay on DU-145 prostate. Moreover, the TGI is 6.7 µM in the assay with HOP-92 NSCLC, 14.4 µM in the assay with MCF7 breast, 6.52 µM in the assay with T-47D breast and 3.12 µM in the assay with M14 melanoma.

For the compound `N#CSc1c[nH]c2cccc(/C=C/C(=O)/C=C(O)/C=C/c3cccc4[nH]cc(SC#N)c34)c12`, the GI50 is 0.649 µM in the assay on SNB-19 CNS; 0.285 µM with EKVX NSCLC; 0.148 µM in the assay with LOX IMVI melanoma; 0.609 µM with CAKI-1 renal; 0.495 µM in the assay on SK-MEL-28 melanoma; 0.484 µM in the assay on DU-145 prostate. Further, the GI50 was 0.51 µM in the assay with HOP-92 NSCLC, 0.254 µM in the assay on MCF7 breast, 0.173 µM in the assay with T-47D breast and 0.437 µM in the assay on M14 melanoma. Moreover, the TGI is 3.2 µM in the assay with SNB-19 CNS; 2.13 µM with EKVX NSCLC; 0.547 µM in the assay on LOX IMVI melanoma; 1.56 µM with CAKI-1 renal; 1.15 µM in the assay with SK-MEL-28 melanoma; 0.986 µM in the assay on DU-145 prostate. The TGI in the assay with HOP-92 NSCLC was determined as 1.27 µM; in the assay on MCF7 breast, 1.45 µM; in the assay on T-47D breast it was 2.27 µM; in the assay on M14 melanoma, 1.11 µM.

As to `CC/C(=C\c1ccc(N(C)C)cc1)c1ccncc1`, the GI50 with SNB-19 CNS was 9.09 µM; with EKVX NSCLC, 3.29 µM; in the assay with LOX IMVI melanoma, 4.05 µM; in the assay with CAKI-1 renal, 3.42 µM; with SK-MEL-28 melanoma, greater than 100 µM; in the assay with DU-145 prostate, 9.47 µM. For the same compound, the GI50 in the assay on HOP-92 NSCLC is 1.89 µM; in the assay on MCF7 breast, 9.31 µM; in the assay with T-47D breast, 4.16 µM; in the assay with M14 melanoma, 4.37 µM. Besides, the TGI with SNB-19 CNS, in the assay on EKVX NSCLC, in the assay on LOX IMVI melanoma, in the assay with CAKI-1 renal, in the assay on SK-MEL-28 melanoma and in the assay on DU-145 prostate was greater than 100 µM throughout. The TGI in the assay on HOP-92 NSCLC is 9.94 µM; in the assay on MCF7 breast, greater than 100 µM; in the assay with T-47D breast it was greater than 100 µM; with M14 melanoma, 54.6 µM.
